Data as given in patent US20080279868A1, “Antibody-Drug Conjugates and Methods of Use” (priority 2005, published 2008).

Experiment: Rate of cyclization of 6-membered hydrazine linker in buffer
Type: physicochemical
Details: for rate of cyclization of the hydrazine linker: buffer at pH 7.4
Procedure: A duocarmycin analog conjugated to a dimethyl 6-membered hydrazine linker was incubated in buffer at pH 7.4 for 24 hours and the generation of cyclized product resulting from cyclization of the hydrazine linker, thereby releasing free duocarmycin analog, was assessed over time.
A duocarmycin analog conjugated to a gem-dimethyl 6-membered hydrazine linker was incubated in buffer at pH 7.4 and the generation of cyclized product resulting from cyclization of the hydrazine linker, thereby releasing free duocarmycin analog, was assessed over time.

| Compound | rate of cyclization of the hydrazine linker | generation of cyclized product resulting from cyclization of the hydrazine linker (buffer at pH 7.4, over 24 hours) |
| --- | --- | --- |
| COC(=O)c1c(C)[nH]c2c(OC(=O)N(C)C(C)(C)C(=O)N(C)N)cc3c(c12)[C@H](CCl)CN3C(=O)c1cc2cc(OC)ccc2o1 | proceeding to completion within a few minutes |  |
| COC(=O)c1c(C)[nH]c2c(OC(=O)N(C)CC(=O)N(C)N)cc3c(c12)[C@H](CCl)CN3C(=O)c1cc2cc(OC)ccc2o1 | relatively slow rate of cyclization | Minimal amounts of cyclized product |
